According to PubChem BioAssay AID1918952 (Molecular Pharmacology Branch, DTP, NCI, 2023):

System: LG0703-F948-PDC complex spheroid viability
Assay: Anticancer human tumor LG0703-F948-PDC patient-derived lung adenocarcinoma cell line growth inhibition
Settings: for IC50: curve of first compound; for viability, T/C: stronger effect = lower value
Source text: Multicellular complex tumor spheroid response to LSD1 Inhibitor Iadademstat in combination with a variety of drugs and investigational agents in selected tumor cell lines
The current study was undertaken to assess response to LSD1 inhibitors in combination with standard-of-care drugs and investigational agents in solid tumor complex spheroid models as well as in the K-562 leukemia. Complex spheroids include a stromal component modeled by human endothelial cells (HUVEC) and fibroblasts modeled by human mesenchymal stem cells (MSCs). The concentration ranges selected for each drug and investigational agent were based upon clinically achievable concentrations if the clinical Cmax of the agent was known.
Compounds. The drugs and investigational agents used in this study are listed on Table 1. All of the agents used, including staurosporine (NSC755774) and gemcitabine (NSC613327), were obtained from the Developmental Therapeutics Program, NCI. FDA-approved anticancer drugs are available from the NCI at http://dtp.nci.nih.gov/branches/dscb/oncology_drugset_explanation.html. Drugs and investigational agents were >95% pure by proton nuclear magnetic resonance (NMR) and liquid chromatography/mass spectrometry (LC/MS). Stock solutions were prepared at 400x in DMSO, stored at -70 degrees C, and diluted in fresh medium prior to their use. The final concentration of DMSO in cell culture wells never exceeded 0.25% (v/v). The FDA-approved anticancer drug set is available from the Developmental Therapeutics Program at https://dtp.cancer.gov/organization/dscb/obtaining/available_plates.htm. All drugs and investigational agents were tested over a range starting from a high concentration at or near the clinical Cmax and decreasing in half-log increments. If the clinical Cmax for an agent had not been determined, the highest concentration tested was 10 microM.
Cell Lines. The patient-derived cancer cell (PDC) lines: 292921-168-R-J2-PDC, K24384-001-R-PDC, and 521955-158-R2-J5-PDC pancreatic carcinomas, 556581-035-R-J1 ovarian carcinoma, 324938-238-R-J1-PDC, 855422-203-R-J1-PDC and 883617-216-R-J1-PDC urothelial bladder carcinomas, 743489-274-T-PDC renal cell carcinoma, 138582-R-J1 Merkel cell tumor, K60290-347-R-J1 and K57222-313-R-J1-PDC glioblastomas, 653999-131-R-J2-PDC, LG0703-F948-PDC, and 349418-098-R-PDC non-small cell lung carcinomas, 885512-296-R-J2-PDC, 171881-019-R-J1-PDC breast carcinomas and 186277-243-T-J2-PDC and 233499-124-R-J2-PDC colon carcinomas were obtained from the NCI Patient-Derived Models Repository (PDMR, https://pdmr.cancer.gov). The established cell lines NCI/ADR-RES (RRID:CVCL_14520 and OVCAR-5 (RRID:CVCL_1628) ovarian carcinomas, 786-O (RRID:CVCL_1051) and A498 (RRID:CVCL_A498) renal cell carcinoma, NCI-H211 (ATCC, cat. CRL-5824; RRID:CVCL_1529), NCI-H196 (ATCC, cat. CRL-5823, RRID:CVCL_1509), SW 1271 (ATCC, cat. CRL-2177, RRID:CVCL_1716) and NCI-H1876 (ATCC, cat. CRL-5902, RRID:CVCL_1503) small cell lung carcinomas, MDA-MB-231 (RRID:CVCL_0062) and MDA-MB-468 (RRID:CVCL_0419)breast carcinomas (10-12). Pooled donor human umbilical vein endothelial cells (HUVEC, Lonza, cat. CC-2519) and human mesenchymal stem cells (hMSC, Lonza, cat. PT-2501) were purchased from Lonza (Walkersville, MD).
Cell Culture. All cells were maintained in an incubator at 37 degrees C and 5% CO2 with 95% humidity. The PDC lines were cultured according to standard operating procedures established by the NCI PDMR (https://pdmr.cancer.gov). Briefly all PDCs were thawed and cultured in Matrigel-coated flasks prepared with a working solution of 1X Ham's F-12 nutrient mix, without supplementation (Invitrogen, Waltham, MA, cat. 11765054), 100 U/mL penicillin-streptomycin (Invitrogen, cat. 15140122), and 2.5% Matrigel (Corning Inc., Corning, NY, cat. 354248) for the first three passages. […]
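Note: spheroids exposed to agents for seven days before readout.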
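Throughout, for viability, T/C: 100% = DMSO vehicle control wells as normalization base.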

## Nc1ccn(C2OC(CO)C(O)C2(F)F)c(=O)n1 (stereo not given) + NC1CC1c1ccc(-c2cccc(O)c2)cc1
Second compound 0.1 µM
  IC50: 12.6 nM
Second compound 0.316 µM
  IC50: 74.2 nM
Second compound 1 µM
  IC50: 100 nM
Second compound 3.16 µM
  IC50: 145 nM
Second compound 10 µM
  IC50: > 300 nM
Second compound 0.1 µM, first compound 0.000949 µM
  viability, T/C: 79%
Second compound 0.1 µM, first compound 0.003 µM
  viability, T/C: 50.8%
Second compound 0.1 µM, first compound 0.00949 µM
  viability, T/C: 51.9%
Second compound 0.1 µM, first compound 0.03 µM
  viability, T/C: 56.6%
Second compound 0.1 µM, first compound 0.0949 µM
  viability, T/C: 43.9%
Second compound 0.1 µM, first compound 0.3 µM
  viability, T/C: 32.3%
Second compound 0.316 µM, first compound 0.000949 µM
  viability, T/C: 70.2%
Second compound 0.316 µM, first compound 0.003 µM
  viability, T/C: 63.9%
Second compound 0.316 µM, first compound 0.00949 µM
  viability, T/C: 66.8%
Second compound 0.316 µM, first compound 0.03 µM
  viability, T/C: 54%
Second compound 0.316 µM, first compound 0.0949 µM
  viability, T/C: 48.9%
Second compound 0.316 µM, first compound 0.3 µM
  viability, T/C: 37.6%
Second compound 1 µM, first compound 0.000949 µM
  viability, T/C: 76.9%
Second compound 1 µM, first compound 0.003 µM
  viability, T/C: 66.5%
Second compound 1 µM, first compound 0.00949 µM
  viability, T/C: 63.6%
Second compound 1 µM, first compound 0.03 µM
  viability, T/C: 60.1%
Second compound 1 µM, first compound 0.0949 µM
  viability, T/C: 51.9%
Second compound 1 µM, first compound 0.3 µM
  viability, T/C: 40.3%
Second compound 3.16 µM, first compound 0.000949 µM
  viability, T/C: 81.5%
Second compound 3.16 µM, first compound 0.003 µM
  viability, T/C: 80.6%
Second compound 3.16 µM, first compound 0.00949 µM
  viability, T/C: 87.3%
Second compound 3.16 µM, first compound 0.03 µM
  viability, T/C: 66%
Second compound 3.16 µM, first compound 0.0949 µM
  viability, T/C: 57.1%
Second compound 3.16 µM, first compound 0.3 µM
  viability, T/C: 41.4%
Second compound 10 µM, first compound 0.000949 µM
  viability, T/C: 87%
Second compound 10 µM, first compound 0.003 µM
  viability, T/C: 78.3%
Second compound 10 µM, first compound 0.00949 µM
  viability, T/C: 83.9%
Second compound 10 µM, first compound 0.03 µM
  viability, T/C: 68.9%
Second compound 10 µM, first compound 0.0949 µM
  viability, T/C: 59%
Second compound 10 µM, first compound 0.3 µM
  viability, T/C: 51.5%

## O=C(c1cc(Cc2n[nH]c(=O)c3ccccc23)ccc1F)N1CCN(C(=O)C2CC2)CC1 + NC1CC1c1ccc(-c2cccc(O)c2)cc1
Second compound 0.1 µM
  IC50: > 10000 nM
Second compound 0.316 µM
  IC50: > 10000 nM
Second compound 1 µM
  IC50: > 10000 nM
Second compound 3.16 µM
  IC50: > 10000 nM
Second compound 10 µM
  IC50: > 10000 nM
Second compound 0.1 µM, first compound 0.0316 µM
  viability, T/C: 112%
Second compound 0.1 µM, first compound 0.1 µM
  viability, T/C: 121%
Second compound 0.1 µM, first compound 0.316 µM
  viability, T/C: 114%
Second compound 0.1 µM, first compound 1 µM
  viability, T/C: 107%
Second compound 0.1 µM, first compound 3.16 µM
  viability, T/C: 92.6%
Second compound 0.1 µM, first compound 10 µM
  viability, T/C: 98.6%
Second compound 0.316 µM, first compound 0.0316 µM
  viability, T/C: 109%
Second compound 0.316 µM, first compound 0.1 µM
  viability, T/C: 111%
Second compound 0.316 µM, first compound 0.316 µM
  viability, T/C: 124%
Second compound 0.316 µM, first compound 1 µM
  viability, T/C: 99%
Second compound 0.316 µM, first compound 3.16 µM
  viability, T/C: 95.2%
Second compound 0.316 µM, first compound 10 µM
  viability, T/C: 79.5%
Second compound 1 µM, first compound 0.0316 µM
  viability, T/C: 102%
Second compound 1 µM, first compound 0.1 µM
  viability, T/C: 121%
Second compound 1 µM, first compound 0.316 µM
  viability, T/C: 134%
Second compound 1 µM, first compound 1 µM
  viability, T/C: 102%
Second compound 1 µM, first compound 3.16 µM
  viability, T/C: 92.1%
Second compound 1 µM, first compound 10 µM
  viability, T/C: 86%
Second compound 3.16 µM, first compound 0.0316 µM
  viability, T/C: 114%
Second compound 3.16 µM, first compound 0.1 µM
  viability, T/C: 107%
Second compound 3.16 µM, first compound 0.316 µM
  viability, T/C: 122%
Second compound 3.16 µM, first compound 1 µM
  viability, T/C: 102%
Second compound 3.16 µM, first compound 3.16 µM
  viability, T/C: 106%
Second compound 3.16 µM, first compound 10 µM
  viability, T/C: 127%
Second compound 10 µM, first compound 0.0316 µM
  viability, T/C: 111%
Second compound 10 µM, first compound 0.1 µM
  viability, T/C: 94.3%
Second compound 10 µM, first compound 0.316 µM
  viability, T/C: 110%
Second compound 10 µM, first compound 1 µM
  viability, T/C: 107%
Second compound 10 µM, first compound 3.16 µM
  viability, T/C: 106%
Second compound 10 µM, first compound 10 µM
  viability, T/C: 91.8%
